We go through one compound from ChEMBL document CHEMBL5465560, “Selectivity Literature for EUbOPEN Chemogenomic Library” (2024).

Positions count from the first letter of the chain named.

Settings in all cases: at 100 nM
In test [1] the test system is T1, Receptor-type tyrosine-protein kinase FLT3 (Homo sapiens), P36888 [K663Q].
T1 sequence (whole entry): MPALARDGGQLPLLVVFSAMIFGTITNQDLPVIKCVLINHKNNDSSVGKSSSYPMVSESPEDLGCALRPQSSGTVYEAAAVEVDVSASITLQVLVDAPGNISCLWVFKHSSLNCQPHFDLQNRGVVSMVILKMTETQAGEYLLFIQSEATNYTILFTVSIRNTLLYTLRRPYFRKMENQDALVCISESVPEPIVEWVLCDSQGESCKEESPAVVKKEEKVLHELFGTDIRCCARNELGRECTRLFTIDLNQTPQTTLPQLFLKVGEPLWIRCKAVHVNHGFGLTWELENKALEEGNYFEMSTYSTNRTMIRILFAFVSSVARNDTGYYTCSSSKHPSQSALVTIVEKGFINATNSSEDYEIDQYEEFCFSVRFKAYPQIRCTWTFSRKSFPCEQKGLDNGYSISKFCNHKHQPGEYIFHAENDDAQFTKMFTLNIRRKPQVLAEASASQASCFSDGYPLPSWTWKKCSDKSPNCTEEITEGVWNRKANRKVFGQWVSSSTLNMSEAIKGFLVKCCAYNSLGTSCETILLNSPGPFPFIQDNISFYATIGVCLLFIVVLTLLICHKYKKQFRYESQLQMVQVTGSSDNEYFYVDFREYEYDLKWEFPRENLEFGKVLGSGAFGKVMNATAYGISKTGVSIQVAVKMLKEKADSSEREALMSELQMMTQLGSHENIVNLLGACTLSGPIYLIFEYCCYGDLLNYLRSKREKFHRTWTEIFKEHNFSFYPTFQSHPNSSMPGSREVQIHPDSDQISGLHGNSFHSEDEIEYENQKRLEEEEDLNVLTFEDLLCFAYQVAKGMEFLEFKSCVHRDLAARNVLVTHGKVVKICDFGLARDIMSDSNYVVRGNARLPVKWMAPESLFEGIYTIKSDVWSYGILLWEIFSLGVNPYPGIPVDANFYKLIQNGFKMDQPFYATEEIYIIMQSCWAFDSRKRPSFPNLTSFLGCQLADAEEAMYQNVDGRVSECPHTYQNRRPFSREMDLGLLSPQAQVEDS
Description: (§1) Selectivity interaction (KinomeScan (DiscoverX)) EUB0000695a FLT3.

Test [2] relates to T2, Receptor-type tyrosine-protein kinase FLT3 (Homo sapiens), P36888 [D835V].
T2 sequence (whole entry): T1 sequence (whole entry) with Q663K, D835V
The description is as §1.

Test [3] concerns Receptor-type tyrosine-protein kinase FLT3 (Homo sapiens), P36888 [UNDEFINED MUTATION]. The description is as §1.
For test [4], the target named is Receptor-type tyrosine-protein kinase FLT3 (Homo sapiens) (UniProt P36888). The test is described as §1.
In test [5] the test system is T3, Receptor-type tyrosine-protein kinase FLT3 (Homo sapiens), P36888 [N841I].
T3 sequence (whole entry): T1 sequence (whole entry) with Q663K, N841I
Described as §1.

Turning to `Cc1cc(F)c(C(=O)Nc2cccc(-c3nncn3C(C)C)n2)cc1-n1cnc(C2CC2)c1`, the % of control is 97% in test [1]; 100% in test [2]; 100% in test [3]; 100% in test [4]; 93% in test [5].
